Results taken from patent publication US20220235043A1, “SUBSTITUTED SULFONAMIDE PYRROLOPYRIDINES AS JAK INHIBITORS” (ACLARIS THERAPEUTICS, INC., priority 2019, published 2022).

Legend:
JAK3 (a.a. 781-1124) = target: T1, JAK3 (a.a. 781-1124) (Homo sapiens, UniProt P52333); assay: JAK3 enzyme activity assay (SRCtide phosphorylation, Caliper); type: biochemical; settings: 1 uM ATP; read-out: JAK3 Inhibition IC50
T1 construct: JAK3 (a.a. 781-1124, ThermoFisher); purchased ThermoFisher
Description: The activity of JAK3 (a.a. 781-1124, ThermoFisher) was quantified by measuring the phosphorylation of SRCtide (FAM-GEEPLYWSFPAKKK-NH2). Kinase reactions were run in a 384-well Greiner plate with 2% final DMSO concentration under the buffer conditions of 20 mM HEPES, pH 7.5, 10 mM MgCl2, 0.01% BSA, and 0.0005% Tween-20. The kinase reaction components were 2.5 nM JAK3, 1 μM SRCtide peptide and 1 uM ATP. Examples were tested in dose-response starting at […] (11 concentrations, 3-fold serial dilution, duplicate reactions). The reactions were incubated at room temperature for 40 minutes, then stopped by adding a 1:1 volume of 30 mM EDTA in 20 mM HEPES, pH 7.5 (15 mM EDTA final). After the reaction was stopped, the phosphorylated and unphosphorylated peptides were separated and quantified using a Caliper LC3000/EZ-Reader system and HTS Well Analyzer Software (Caliper, A PerkinElmer Company, Hopkinton, Mass.). GraFit (Erithacus Software Ltd., Horley, U.K.) was used to calculate inhibitor potency by fitting dose-response data to the 4-parameter logistical IC50 equation.

[1] = test system: IL-2 stimulated STAT5 phosphorylation on Tyr694 (JAK1/3); assay: JAK1/3 cellular target modulation: IL-2 stimulated phospho-STAT5 in human PBMC; type: cell-based; settings: IL-2 25 ng/ml, read-out: IL2-STAT5 IC50
Source text: (§1) Target modulation was based upon the ability of a compound to inhibit JAK isoform specific phosphorylation of selected substrates. IL-2 stimulated STAT5 phosphorylation on Tyr694 was used to assess JAK1/3 compound selectivity. GM-CSF stimulated STAT5 phosphorylation on Tyr694 was used to assess JAK2 compound selectivity. IFNγ stimulated STAT1 phosphorylation on Tyr701 was used to assess JAK1/2 compound selectivity. IL-12 stimulated STAT4 phosphorylation on Tyr693 was used to assess JAK2/TYK2 compound selectivity. For all four assays, human PBMC from frozen stocks were thawed, pelleted, resuspended in complete media (90% RPMI, 10% heat inactivated FBS, 10 mM HEPES, 47 μM 2-ME, pen/strep) and placed in wells of a 96 well V-bottom plate at 200,000 per well in 120 μl complete media. Compounds were added as 15 μl per well of 10× working stock solutions in complete media with 1% DMSO (or medium with 1% DMSO for controls) and placed on a plate shaker in a 37° C. incubator with 5% CO2 for 1 hour with gentle shaking (setting of 3). Stimulation used the addition of soluble cytokines. For the JAK1/3 phospho-STAT5 assay, 15 μl of 10× working stock recombinant human IL-2 was added to a final concentration of 25 ng/ml. For the JAK2 phospho-STAT5 assay, 15 μl of 10× working stock recombinant human GM-CSF was added to a final concentration of 5 ng/ml. For the JAK1/2 phospho-STAT1 assay, 15 μl of 10× working stock of recombinant human IFNγ was added to a final concentration of 10 ng/ml. For the JAK2/TYK2 phospho-STAT4 assay, 15 μl of 10× working stock of recombinant human IL-12 was added to a final concentration of 1.7 ng/ml. Plates were then placed back on the plate shaker in the incubator for an additional 5, 5, 10, and 25 minutes respectively upon which the plates were removed from the incubator, sealed with a plate sealer and the cells pelleted at 400×g for 5 minutes. After pelleting, the media was removed by aspiration and the cells were lysed in assay specific cell lysis buffer. The levels of phospho-STAT5 were determined using a Phospho (Tyr694)STAT5a,b Whole Cell Lysate kit from Meso Scale Discovery. Levels of phospho-STAT1 were determined using a CST-PathScan Phospho-STAT1 (Tyr701) Sandwich ELISA kit. Levels of phospho-STAT4 were determined using a Phospho-STAT4 (Tyr693) Whole Cell Lysate kit from Meso Scale Discovery.

Tyk-2 = target: T2, Tyk-2 (Homo sapiens, UniProt P29597); assay: Tyk-2 enzyme activity assay (Thermo Fisher Selectscreen, Z-lyte); type: biochemical; settings: read-out: Tyk-2 Inhibition IC50
T2 construct: purchased Thermo Fisher Scientific (SelectScreen service)
T2 sequence (P29597 whole entry): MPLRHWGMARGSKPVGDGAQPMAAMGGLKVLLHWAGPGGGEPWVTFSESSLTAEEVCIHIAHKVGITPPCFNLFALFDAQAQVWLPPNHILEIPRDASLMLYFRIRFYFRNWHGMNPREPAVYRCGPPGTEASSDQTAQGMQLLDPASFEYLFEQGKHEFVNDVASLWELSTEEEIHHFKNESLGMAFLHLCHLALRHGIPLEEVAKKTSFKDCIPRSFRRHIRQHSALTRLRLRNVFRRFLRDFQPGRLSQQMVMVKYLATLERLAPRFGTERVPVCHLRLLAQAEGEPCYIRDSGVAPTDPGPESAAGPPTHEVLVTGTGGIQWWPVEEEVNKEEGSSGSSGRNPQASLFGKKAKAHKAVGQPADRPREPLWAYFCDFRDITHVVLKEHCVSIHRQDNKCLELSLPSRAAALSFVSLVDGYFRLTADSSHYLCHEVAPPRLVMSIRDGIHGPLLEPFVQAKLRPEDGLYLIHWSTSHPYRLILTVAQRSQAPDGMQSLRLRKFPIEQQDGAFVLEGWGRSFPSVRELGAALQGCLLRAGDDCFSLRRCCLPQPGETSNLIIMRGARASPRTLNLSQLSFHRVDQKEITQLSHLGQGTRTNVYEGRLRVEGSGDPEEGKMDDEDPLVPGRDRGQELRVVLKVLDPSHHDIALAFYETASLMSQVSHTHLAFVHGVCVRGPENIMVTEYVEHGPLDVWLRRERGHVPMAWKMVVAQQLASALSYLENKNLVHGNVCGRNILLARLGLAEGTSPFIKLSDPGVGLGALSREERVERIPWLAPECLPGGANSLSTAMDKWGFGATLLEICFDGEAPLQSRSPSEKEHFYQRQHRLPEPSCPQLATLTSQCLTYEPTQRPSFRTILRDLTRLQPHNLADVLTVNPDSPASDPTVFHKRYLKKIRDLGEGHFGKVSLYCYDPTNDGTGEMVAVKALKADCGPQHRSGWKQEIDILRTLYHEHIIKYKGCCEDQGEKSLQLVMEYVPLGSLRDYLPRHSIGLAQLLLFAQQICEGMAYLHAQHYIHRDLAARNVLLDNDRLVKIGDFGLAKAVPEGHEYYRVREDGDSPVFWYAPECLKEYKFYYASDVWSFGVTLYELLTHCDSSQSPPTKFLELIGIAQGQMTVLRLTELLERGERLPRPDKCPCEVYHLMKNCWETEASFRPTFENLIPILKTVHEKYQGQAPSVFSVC
Description: (§2) The inhibitory potency of candidate compounds of JAK1, JAK2, and Tyk-2 was done at Thermo Fisher Scientific in their Selectscreen using a Z-lyte assay. Following are the assay details for each enzyme.
TYK2: The 2×TYK2/Tyr 03 mixture is prepared in 50 mM HEPES pH 6.5, 0.01% BRIJ-35, 10 mM MgCl2, 1 mM EGTA, 0.02% NaN3. The final 10 μL Kinase Reaction consists of 3.75-15 ng TYK2 and 2 μM Tyr 03 in 50 mM HEPES pH 7.0, 0.01% BRIJ-35, 10 mM MgCl2, 1 mM EGTA, 0.01% NaN3. After the one hour KinaseReaction incubation, 5 μL of a 1:4096 dilution of Development Reagent A is added.
(§3) Data reduction for JAK1, JAK2 and TYK2 is done the same, independent of the enzyme run. In summary, background signal is defined in the absence of enzyme and uninhibited signal is defined in the presence of vehicle (2% DMSO) alone. Compounds were evaluated in an 11 point dose-response ranging from […] to 0.34 nM. IC50 values of compounds are determined using a 4 parameter logistical fit of emission ratio as a function of the concentration of compound.

JAK2 = target: T3, JAK2 (Homo sapiens, UniProt O60674); assay: JAK2 enzyme activity assay (Thermo Fisher Selectscreen, Z-lyte); type: biochemical; settings: read-out: JAK2 Inhibition IC50
T3 construct: purchased Thermo Fisher Scientific (SelectScreen service)
T3 sequence (O60674 whole entry): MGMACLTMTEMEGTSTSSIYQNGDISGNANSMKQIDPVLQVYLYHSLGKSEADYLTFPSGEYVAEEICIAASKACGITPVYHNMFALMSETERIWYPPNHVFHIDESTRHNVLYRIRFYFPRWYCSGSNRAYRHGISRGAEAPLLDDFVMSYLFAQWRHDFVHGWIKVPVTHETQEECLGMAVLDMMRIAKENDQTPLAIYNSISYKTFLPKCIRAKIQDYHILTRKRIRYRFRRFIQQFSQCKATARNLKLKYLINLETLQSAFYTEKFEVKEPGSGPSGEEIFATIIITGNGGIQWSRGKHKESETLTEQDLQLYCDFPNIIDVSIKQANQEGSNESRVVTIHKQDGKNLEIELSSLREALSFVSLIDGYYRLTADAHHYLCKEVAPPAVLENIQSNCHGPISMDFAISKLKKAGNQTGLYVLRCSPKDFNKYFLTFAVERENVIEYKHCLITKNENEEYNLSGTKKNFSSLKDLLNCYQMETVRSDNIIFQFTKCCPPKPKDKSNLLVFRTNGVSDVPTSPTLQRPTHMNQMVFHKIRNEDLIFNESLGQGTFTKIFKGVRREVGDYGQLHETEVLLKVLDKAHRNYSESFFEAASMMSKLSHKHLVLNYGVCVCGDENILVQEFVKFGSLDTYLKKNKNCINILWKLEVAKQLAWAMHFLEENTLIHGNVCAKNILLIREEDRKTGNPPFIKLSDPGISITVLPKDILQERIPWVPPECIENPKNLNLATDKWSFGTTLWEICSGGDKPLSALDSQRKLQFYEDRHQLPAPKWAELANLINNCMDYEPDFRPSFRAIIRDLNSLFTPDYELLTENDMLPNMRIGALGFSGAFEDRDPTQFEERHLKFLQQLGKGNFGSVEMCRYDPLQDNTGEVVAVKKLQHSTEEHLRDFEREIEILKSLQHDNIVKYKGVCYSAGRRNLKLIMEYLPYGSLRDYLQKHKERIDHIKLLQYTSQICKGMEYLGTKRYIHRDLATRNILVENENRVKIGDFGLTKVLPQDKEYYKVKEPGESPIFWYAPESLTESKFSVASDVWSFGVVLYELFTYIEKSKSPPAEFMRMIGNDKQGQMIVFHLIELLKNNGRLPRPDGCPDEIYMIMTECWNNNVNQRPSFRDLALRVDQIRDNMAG
Description: as §2
JAK2: The 2×JAK2/Tyr 06 mixture is prepared in 50 mM HEPES pH 7.5, 0.01% BRIJ-35, 10 mM MgCl2, 1 mM EGTA. The final 10 μL Kinase Reaction consists of 0.12-0.5 ng JAK2 and 2 μM Tyr 06 in 50 mM HEPES pH 7.5, 0.01% BRIJ-35, 10 mM MgCl2, 1 mM EGTA. After the one hour Kinase Reaction incubation, 5 μL of a 1:128 dilution of Development Reagent A is added.
as §3

[2] = test system: IFNγ stimulated STAT1 phosphorylation on Tyr701 (JAK1/2); assay: JAK1/2 cellular target modulation: IFNγ stimulated phospho-STAT1 in human PBMC; type: cell-based; settings: IFNγ 10 ng/ml, read-out: Infγ-STAT1 IC50
Source text: as §1

JAK1 = target: T4, JAK1 (Homo sapiens, UniProt P23458); assay: JAK1 enzyme activity assay (Thermo Fisher Selectscreen, Z-lyte); type: biochemical; settings: read-out: JAK1 Inhibition IC50
T4 construct: purchased Thermo Fisher Scientific (SelectScreen service)
T4 sequence (P23458 whole entry): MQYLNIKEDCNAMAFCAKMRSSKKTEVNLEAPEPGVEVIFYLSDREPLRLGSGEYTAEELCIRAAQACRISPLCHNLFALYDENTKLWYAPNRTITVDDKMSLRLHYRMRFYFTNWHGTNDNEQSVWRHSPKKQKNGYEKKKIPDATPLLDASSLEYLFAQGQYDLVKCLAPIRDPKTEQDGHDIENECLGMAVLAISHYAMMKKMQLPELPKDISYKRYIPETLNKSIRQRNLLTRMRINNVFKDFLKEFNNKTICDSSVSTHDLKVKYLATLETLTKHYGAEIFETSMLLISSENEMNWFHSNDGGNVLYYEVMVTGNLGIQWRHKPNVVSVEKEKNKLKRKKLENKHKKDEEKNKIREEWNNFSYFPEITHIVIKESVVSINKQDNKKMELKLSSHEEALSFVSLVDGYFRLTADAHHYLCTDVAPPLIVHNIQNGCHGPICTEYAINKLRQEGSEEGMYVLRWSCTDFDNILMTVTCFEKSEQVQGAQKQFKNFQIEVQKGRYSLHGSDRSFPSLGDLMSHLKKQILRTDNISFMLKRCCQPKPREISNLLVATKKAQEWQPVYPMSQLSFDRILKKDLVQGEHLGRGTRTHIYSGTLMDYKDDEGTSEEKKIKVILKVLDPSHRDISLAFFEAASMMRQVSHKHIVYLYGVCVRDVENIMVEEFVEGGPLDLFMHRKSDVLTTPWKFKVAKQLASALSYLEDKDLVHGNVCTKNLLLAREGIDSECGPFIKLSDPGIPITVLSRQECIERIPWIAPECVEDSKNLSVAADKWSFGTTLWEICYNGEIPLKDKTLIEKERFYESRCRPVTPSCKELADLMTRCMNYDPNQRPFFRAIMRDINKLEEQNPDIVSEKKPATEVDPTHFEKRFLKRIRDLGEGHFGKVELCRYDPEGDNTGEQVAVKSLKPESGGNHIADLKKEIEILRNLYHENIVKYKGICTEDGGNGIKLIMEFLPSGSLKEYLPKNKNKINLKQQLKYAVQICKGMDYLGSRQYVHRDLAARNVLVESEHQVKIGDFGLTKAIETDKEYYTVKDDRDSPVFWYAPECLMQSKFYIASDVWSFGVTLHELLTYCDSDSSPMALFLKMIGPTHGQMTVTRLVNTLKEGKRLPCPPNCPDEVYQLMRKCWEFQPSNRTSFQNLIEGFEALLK
Description: as §2
JAK1: The 2×JAK-enzyme/Tyr 06 mixture is prepared in 50 mM HEPES pH 6.5, 0.01% BRIJ-35, 10 mM MgCl2, 1 mM EGTA, 0.02% NaN3. The final 10 μL of the Kinase Reaction consists of 21.2-91.5 ng JAK1 and 2 μM Tyr 06 in 50 mM HEPES pH 7.0, 0.01% BRIJ-35, 10 mM MgCl2, 1 mM EGTA, 0.01% NaN3. After the one hour Kinase Reaction incubation, 5 μL of a 1:128 dilution of Development Reagent is added.
as §3

[3] = test system: IL-12 stimulated STAT4 phosphorylation on Tyr693 (JAK2/TYK2); assay: JAK2/TYK2 cellular target modulation: IL-12 stimulated phospho-STAT4 in human PBMC; type: cell-based; settings: IL-12 1.7 ng/ml, read-out: IL12-STAT4 IC50
Source text: as §1

T1 sequence (P52333 781-1124): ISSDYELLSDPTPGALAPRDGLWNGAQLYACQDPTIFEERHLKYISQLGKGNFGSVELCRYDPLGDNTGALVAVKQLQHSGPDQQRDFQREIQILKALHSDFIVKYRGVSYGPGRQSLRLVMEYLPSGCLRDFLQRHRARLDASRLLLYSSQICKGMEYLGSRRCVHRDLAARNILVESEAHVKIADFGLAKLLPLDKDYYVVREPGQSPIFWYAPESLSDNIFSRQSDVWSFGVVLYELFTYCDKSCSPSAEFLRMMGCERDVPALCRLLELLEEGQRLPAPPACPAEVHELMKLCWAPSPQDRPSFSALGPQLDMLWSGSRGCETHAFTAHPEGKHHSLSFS

Row | IC50 (JAK3 (a.a. 781-1124)) [nM] | IC50 [1] [nM] | IC50 (Tyk-2) [nM] | IC50 (JAK2) [nM] | IC50 [2] [nM] | IC50 (JAK1) [nM] | IC50 [3] [nM] | SMILES
1 | 10 to 100 | 100 to 1000 | 10 to 100 | ≤ 10 | 100 to 1000 | ≤ 10 | > 1000 | Cc1nnc(-c2cnc3[nH]ccc3c2N[C@H]2C[C@@H](NS(=O)(=O)CCCC#N)C2)s1 [Example 77, 3-cyano-N-((1s,3s)-3-((5-(5-methyl-1,3,4-thiadiazol-2-yl)-1H-pyrrolo[2,3-b]pyridin-4-yl)amino)cyclobutyl)propane-1-sulfonamide]
2 | 10 to 100 | ≤ 100 | ≤ 10 | ≤ 10 | 100 to 1000 | ≤ 10 | > 1000 | N#Cc1cccc(S(=O)(=O)N[C@H]2C[C@@H](Nc3c(-c4nncs4)cnc4[nH]ccc34)C2)c1 [Example 78, N-((1s,3s)-3-((5-(1,3,4-thiadiazol-2-yl)-1H-pyrrolo[2,3-b]pyridin-4-yl)amino)cyclobutyl)-3-cyanobenzenesulfonamide]
3 | 10 to 100 | 100 to 1000 | 10 to 100 | ≤ 10 | 100 to 1000 | ≤ 10 | > 1000 | N#Cc1cccc(S(=O)(=O)N[C@H]2C[C@@H](Nc3c(-c4nnco4)cnc4[nH]ccc34)C2)c1 [Example 79, N-((1s,3s)-3-((5-(1,3,4-oxadiazol-2-yl)-1H-pyrrolo[2,3-b]pyridin-4-yl)amino)cyclobutyl)-3-cyanobenzenesulfonamide]
4 | 10 to 100 | ≤ 100 | 10 to 100 | ≤ 10 | 100 to 1000 | ≤ 10 | > 1000 | Cc1nnc(-c2cnc3[nH]ccc3c2N[C@H]2C[C@@H](NS(=O)(=O)c3cccc(C#N)c3)C2)o1 [Example 81, 3-cyano-N-((1s,3s)-3-((5-(5-methyl-1,3,4-oxadiazol-2-yl)-1H-pyrrolo[2,3-b]pyridin-4-yl)amino)cyclobutyl)benzenesulfonamide]
5 | 100 to 1000 | 100 to 1000 | 100 to 1000 | 10 to 100 | > 1000 | 10 to 100 | > 1000 | CCCS(=O)(=O)N[C@H]1C[C@@H](Nc2c(-c3nnc(C)o3)cnc3[nH]ccc23)C1 [Example 82, N-((1s,3s)-3-((5-(5-methyl-1,3,4-oxadiazol-2-yl)-1H-pyrrolo[2,3-b]pyridin-4-yl)amino)cyclobutyl)propane-1-sulfonamide]
6 | ≤ 10 | ≤ 100 | ≤ 10 | ≤ 10 | 100 to 1000 | ≤ 10 | > 1000 | Cc1nccc(-c2cnc3[nH]ccc3c2N[C@H]2C[C@@H](NS(=O)(=O)c3cccc(C#N)c3)C2)n1 [Example 84, 3-cyano-N-((1s,3s)-3-((5-(2-methylpyrimidin-4-yl)-1H-pyrrolo[2,3-b]pyridin-4-yl)amino)cyclobutyl)benzenesulfonamide]
7 | 10 to 100 | 100 to 1000 | 10 to 100 | ≤ 10 | 100 to 1000 | ≤ 10 | > 1000 | Cc1nccc(-c2cnc3[nH]ccc3c2N[C@H]2C[C@@H](NS(=O)(=O)c3cc(C#N)ccn3)C2)n1 [Example 85, 4-cyano-N-((1s,3s)-3-((5-(2-methylpyrimidin-4-yl)-1H-pyrrolo[2,3-b]pyridin-4-yl)amino)cyclobutyl)pyridine-2-sulfonamide]
